Measured values taken from patent US12454525B2, “IL4I1 inhibitors and methods of use” (Merck Sharp & Dohme LLC, priority 2020, dated 2025).

target: T1, recombinant IL4I1 (Homo sapiens, UniProt Q96RQ9); assay: IL4I1 Enzymatic Assay (Amplex Red/HRP coupled H2O2 detection); type: biochemical; details: 240 min; four-hour pre-incubation with compound; 1 nM IL4I1, 1 mM each Phe/Tyr/Trp; ten-point titration; fluorescence readout; read-out: Potency EC50 (nM) (240 min)
T1 construct: purchased R&D Systems 5684-AO-020
T1 sequence (Q96RQ9 22-567): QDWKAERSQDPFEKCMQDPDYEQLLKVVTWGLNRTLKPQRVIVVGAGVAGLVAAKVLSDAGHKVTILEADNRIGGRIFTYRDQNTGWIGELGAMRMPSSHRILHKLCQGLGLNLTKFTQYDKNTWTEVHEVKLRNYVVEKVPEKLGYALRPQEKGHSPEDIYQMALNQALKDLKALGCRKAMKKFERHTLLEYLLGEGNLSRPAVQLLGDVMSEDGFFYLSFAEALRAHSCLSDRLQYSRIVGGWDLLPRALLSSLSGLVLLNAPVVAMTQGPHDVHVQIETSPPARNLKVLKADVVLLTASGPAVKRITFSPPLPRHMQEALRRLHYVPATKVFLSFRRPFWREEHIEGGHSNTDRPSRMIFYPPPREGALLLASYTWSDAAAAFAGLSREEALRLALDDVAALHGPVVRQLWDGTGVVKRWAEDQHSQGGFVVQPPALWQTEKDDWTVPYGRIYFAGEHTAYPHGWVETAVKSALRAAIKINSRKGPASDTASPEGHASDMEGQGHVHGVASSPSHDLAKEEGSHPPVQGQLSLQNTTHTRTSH
Method: Interleukin 4 inducible protein 1 (IL4I1) is an L-amino oxidase that catalyzes the oxidation of aromatic residues (Phe, Trp and Tyr): L-amino acid+H2O+O2→2-oxo acid+NH3+H2O2. Equal molar of H2O2 and the corresponding alpha-ketoacid are produced when IL4I1 and substrate are added. In this assay, the hydrogen peroxide generated by IL4I1 is then detected through a coupled reaction with Amplex Red (10-acetyl-3,7-dihydroxyphenoxazine) and […] (HRP) to produce Resorufin product that could be detected in the form of fluorescence signals. The assessment of the inhibitory effect of small molecules (EC50) on IL4I1 is measured by the effectiveness of the compounds to inhibit the production of H2O2.
Using this assay, the potency (EC50) of each compound was determined from a ten-point (1:3 serial dilution) titration curve using the following outlined procedure. To each well of a black flat-bottom Greiner (Cat #781076) 384 well-plate, 25 nL of compound (0.1% DMSO in final assay volume of 25 μL) was dispensed, followed by the addition of 12.5 μL of 1x assay buffer (50 mM Hepes 7.0 and 0.005% Tween20 (Sigma, Cat #P8341; low peroxide grade)) containing 2 nM of recombinant IL4I1 (R&D Systems, Cat #5684-AO-020). Plates were placed in an ambient temperature humidified chamber for a four-hour pre-incubation with compound. Subsequently, each reaction was initiated by the addition of 12.5 μL 1x assay buffer containing 2 mM of each aromatic amino acids (Phe/Tyr/Trp), 0.1 mM Amplex Red and 2 U/mL of HRP. The final reaction in each well of 25 μL consists of 1 nM of IL411, 1 mM of each residues (Phe, Tyr and Trp), 0.05 mM Amplex Red and 1 U/mL of HRP. It should be noted that the concentrations of Amplex Red and HRP used here are in excess such that the conversion of H2O2 to Resorufin product occurs instantaneously and non-rate limiting. Reactions were allowed to proceed for 120 minutes followed by fluorescence readout on a Spectramax with the following set parameters: 544 nm excitation/590 nm emission, 570 nm cutoff (EnVision is an alternative reader). Dose-response curves were generated by plotting percent effect (% product conversion; Y-axis) vs. Log10 compound concentrations (X-axis). EC50 values were calculated using a non-linear regression, four-parameters sigmoidal dose-response model and are shown in Table 16.

Structure (SMILES) | EC50
CC(=O)NCc1ccc(Cn2c(=O)[nH]c3ccccc32)cc1 [Example 11, N-(4-((2-oxo-2,3-dihydro-1H-benzo[d]imidazol-1-yl)methyl)benzyl)acetamide] | 6 nM
CC[C@@H](NC(C)=O)c1ccc(Cn2c(=O)[nH]c3ccccc32)cc1 [Example 16, (R)-N-(1-(4-((2-oxo-2,3-dihydro-1H-benzo[d]imidazol-1-yl)methyl)phenyl)propyl)acetamide] | 24 nM
O=C1CCCN1Cc1ccc(Cn2c(=O)[nH]c3ccccc32)cc1Cl [Example 18, 1-(3-chloro-4-((2-oxopyrrolidin-1-yl)methyl)benzyl)-1,3-dihydro-2H-benzo[d]imidazol-2-one] | 8 nM
O=C1CC2(CC2)CN1Cc1ccc(Cn2c(=O)[nH]c3ccccc32)cc1 [Example 22, 1-({4-[(6-oxo-5-azaspiro[2.4]heptan-5-yl)methyl]phenyl}methyl)-1,3-dihydro-2H-benzimidazol-2-one] | 8 nM
O=C1CCCN1Cc1c(F)cc(Cn2c(=O)[nH]c3ccccc32)cc1F [Example 23, 1-({3,5-difluoro-4-[(2-oxopyrrolidin-1-yl)methyl]phenyl}methyl)-1,3-dihydro-2H-benzimidazol-2-one] | 18 nM
N#Cc1cc(Cn2c(=O)[nH]c3ccccc32)ccc1CN1CCCC1=O [Example 24, 5-((2-oxo-2,3-dihydro-1H-benzo[d]imidazol-1-yl)methyl)-2-((2-oxopyrrolidin-1-yl)methyl) benzonitrile] | 24 nM
O=C1CCCN1Cc1ncc(Cn2c(=O)[nH]c3ccccc32)cc1Cl [Example 25, 1-((5-chloro-6-((2-oxopyrrolidin-1-yl)methyl)pyridin-3-yl)methyl)-1,3-dihydro-2H-benzo[d]imidazol-2-one] | 47 nM
O=c1[nH]c2ccccc2n1Cc1cccc(-c2nnco2)c1 [Example 27, 1-(3-(1,3,4-oxadiazol-2-yl)benzyl)-1,3-dihydro-2H-benzo[d]imidazol-2-one] | 7 nM
O=c1[nH]c2ccccc2n1Cc1ccc2c(c1)S(=O)(=O)CC2 [Example 28, 1-((1,1-dioxido-2,3-dihydrobenzo[b]thiophen-6-yl)methyl)-1,3-dihydro-2H-benzo[d]imidazol-2-one] | 33 nM
CNC(=O)c1cccc(Cn2c(=O)[nH]c3ccccc32)c1 [Example 29, N-methyl-3-[(2-oxo-2,3-dihydro-1H-benzimidazol-1-yl)methyl]benzamide] | 5 nM
O=c1[nH]c2ccccc2n1Cc1cc(C(F)F)cc(C(F)F)c1 [Example 30, 1-{[3,5-bis(difluoromethyl)phenyl]methyl}-1,3-dihydro-2H-benzimidazol-2-one] | 9 nM
CC(=O)Nc1ccc(Cn2c(=O)[nH]c3ccccc32)cc1F [Example 32, N-{2-fluoro-4-[(2-oxo-2,3-dihydro-1H-benzimidazol-1-yl)methyl]phenyl} acetamide] | 11 nM
CC1NC(=O)c2cc(Cn3c(=O)[nH]c4ccccc43)ccc21 (stereo not shown) [Example 33, 1-[(1-methyl-3-oxo-2,3-dihydro-1H-isoindol-5-yl)methyl]-1,3-dihydro-2H-benzimidazol-2-one] | 15 nM
N#CC1(c2cccc(Cn3c(=O)[nH]c4ccccc43)c2)CC1 [Example 35, 1-{3-[(2-oxo-2,3-dihydro-1H-benzimidazol-1-yl)methyl]phenyl} cyclopropane-1-carbonitrile] | 2 nM
O=C1CCCN1Cc1sc(Cn2c(=O)[nH]c3ccccc32)cc1Cl [Example 36, 1-((4-chloro-5-((2-oxopyrrolidin-1-yl)methyl)thiophen-2-yl)methyl)-1,3-dihydro-2H-benzo[d]imidazol-2-one] | 9 nM
CN(C)C(=O)Cc1ccc(Cn2c(=O)[nH]c3ccccc32)nc1 [Example 37, N,N-dimethyl-2-(6-((2-oxo-2,3-dihydro-1H-benzo[d]imidazol-1-yl)methyl)pyridin-3-yl)acetamide] | 1600 nM
CC(=O)NCc1sc(Cn2c(=O)[nH]c3ccccc32)cc1Cl [Example 38, N-((3-chloro-5-((2-oxo-2,3-dihydro-1H-benzo[d]imidazol-1-yl)methyl)thiophen-2-yl)methyl)acetamide] | 6 nM

Further molecules by falling EC50, results first:

EC50 | Structure (SMILES)
153 nM | O=c1[nH]c2ccccc2n1Cc1cnc2c(c1)CCC2 [Example 34, 1-[(6,7-dihydro-5H-cyclopenta[b]pyridin-3-yl)methyl]-1,3-dihydro-2H-benzimidazol-2-one]
22 nM | O=C1NCc2ccc(Cn3c(=O)[nH]c4ccccc43)cc21 [Example 10, 1-[(3-oxo-2,3-dihydro-1H-isoindol-5-yl)methyl]-1,3-dihydro-2H-benzimidazol-2-one]
19 nM | CC(=O)N[C@H](C)c1ccc(Cn2c(=O)[nH]c3ccccc32)cc1 [Example 15, (R)—N-(1-(4-((2-oxo-2,3-dihydro-1H-benzo[d]imidazol-1-yl)methyl)phenyl)ethyl)acetamide]
15 nM | C[C@@H]1NC(=O)O[C@H]1c1cccc(Cn2c(=O)[nH]c3ccccc32)c1 [Example 31, 1-({3-[(4S,5S)-4-methyl-2-oxo-1,3-oxazolidin-5-yl]phenyl}methyl)-1,3-dihydro-2H-benzimidazol-2-one]
14 nM | O=C1CCCN1Cc1ccc(Cn2c(=O)[nH]c3ccccc32)cc1I [Example 19, 1-(3-iodo-4-((2-oxopyrrolidin-1-yl)methyl)benzyl)-1,3-dihydro-2H-benzo[d]imidazol-2-one]
12 nM | CNC(=O)c1cc(Cn2c(=O)[nH]c3ccccc32)ccc1OC [Example 17, 2-methoxy-N-methyl-5-((2-oxo-2,3-dihydro-1H-benzo[d]imidazol-1-yl)methyl)benzamide]
8 nM | CS(=O)(=O)NCc1ccc(Cn2c(=O)[nH]c3ccccc32)cc1 [Example 12, N-(4-((2-oxo-2,3-dihydro-1H-benzo[d]imidazol-1-yl)methyl)benzyl)methanesulfonamide]
8 nM | CN(Cc1ccc(Cn2c(=O)[nH]c3ccccc32)cc1)S(C)(=O)=O [Example 21, N-methyl-N-({4-[(2-oxo-2,3-dihydro-1H-benzimidazol-1-yl)methyl]phenyl}methyl) methanesulfonamide]
7 nM | O=c1[nH]c2ccccc2n1Cc1ccc(CN2CCOCS2(=O)=O)cc1 [Example 20, 1-(4-((3,3-dioxido-1,3,4-oxathiazinan-4-yl)methyl)benzyl)-1,3-dihydro-2H-benzo[d]imidazol-2-one]
7 nM | CC(=O)NCc1sc(Cn2c(=O)[nH]c3ccccc32)cc1C [Example 40, N-((3-methyl-5-((2-oxo-2,3-dihydro-1H-benzo[d]imidazol-1-yl)methyl)thiophen-2-yl)methyl)acetamide]
6 nM | CNC(=O)c1csc(Cn2c(=O)[nH]c3ccccc32)c1 [Example 13, N-methyl-5-((2-oxo-2,3-dihydro-1H-benzo[d]imidazol-1-yl)methyl)thiophene-3-carboxamide]
6 nM | O=c1[nH]c2ccccc2n1Cc1ccc(CN2CCCS2(=O)=O)cc1 [Example 26, 1-(4-((1,1-dioxidoisothiazolidin-2-yl)methyl)benzyl)-1,3-dihydro-2H-benzo[d]imidazol-2-one]
5 nM | CS(=O)(=O)NCc1sc(Cn2c(=O)[nH]c3ccccc32)cc1Cl [Example 39, N-((3-chloro-5-((2-oxo-2,3-dihydro-1H-benzo[d]imidazol-1-yl)methyl)thiophen-2-yl)methyl)methanesulfonamide]
2 nM | O=C(NC1CC1)c1ccc(Cn2c(=O)[nH]c3ccccc32)s1 [Example 14]
